Columns and labels:
[1] = biological target: Glycogen synthase kinase-3 beta (Homo sapiens) (UniProt P49841); test: Non-competitive inhibition of GSK3-beta (unknown origin) assessed as inhibition of tau hyperphosphorylation at 100 ug/ml incubated for 1 hr in presence of ATP by ADP-Glo kinase assay relative to control; conditions: dose 100.0 µg/ml
Cholinesterase [2] = biological target: T1, Cholinesterase (Homo sapiens, UniProt P06276); test: Inhibition of BuChE (unknown origin)
Acetylcholinesterase [3] = biological target: T2, Acetylcholinesterase (Homo sapiens, UniProt P22303); test: Inhibition of AChE (unknown origin)
T2 sequence (P22303 whole entry): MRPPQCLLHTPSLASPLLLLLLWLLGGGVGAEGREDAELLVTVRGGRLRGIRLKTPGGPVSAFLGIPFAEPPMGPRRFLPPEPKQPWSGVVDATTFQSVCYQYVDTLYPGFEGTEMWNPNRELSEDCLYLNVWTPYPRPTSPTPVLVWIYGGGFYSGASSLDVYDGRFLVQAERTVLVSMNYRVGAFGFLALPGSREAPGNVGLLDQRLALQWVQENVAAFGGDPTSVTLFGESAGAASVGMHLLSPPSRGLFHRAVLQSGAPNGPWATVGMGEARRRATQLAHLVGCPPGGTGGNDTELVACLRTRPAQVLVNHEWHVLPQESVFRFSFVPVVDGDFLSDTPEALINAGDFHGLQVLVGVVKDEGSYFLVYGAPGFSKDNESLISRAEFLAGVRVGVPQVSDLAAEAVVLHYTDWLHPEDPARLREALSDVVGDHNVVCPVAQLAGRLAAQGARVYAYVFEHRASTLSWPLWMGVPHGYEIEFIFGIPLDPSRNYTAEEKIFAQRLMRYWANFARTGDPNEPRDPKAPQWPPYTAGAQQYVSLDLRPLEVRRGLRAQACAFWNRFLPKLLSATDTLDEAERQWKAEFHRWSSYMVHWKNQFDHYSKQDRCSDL

Beta-secretase 1 [4] = biological target: T3, Beta-secretase 1 (Homo sapiens, UniProt P56817); test: Inhibition of human BACE-1 at 100 uM relative to control
T3 sequence (P56817 whole entry): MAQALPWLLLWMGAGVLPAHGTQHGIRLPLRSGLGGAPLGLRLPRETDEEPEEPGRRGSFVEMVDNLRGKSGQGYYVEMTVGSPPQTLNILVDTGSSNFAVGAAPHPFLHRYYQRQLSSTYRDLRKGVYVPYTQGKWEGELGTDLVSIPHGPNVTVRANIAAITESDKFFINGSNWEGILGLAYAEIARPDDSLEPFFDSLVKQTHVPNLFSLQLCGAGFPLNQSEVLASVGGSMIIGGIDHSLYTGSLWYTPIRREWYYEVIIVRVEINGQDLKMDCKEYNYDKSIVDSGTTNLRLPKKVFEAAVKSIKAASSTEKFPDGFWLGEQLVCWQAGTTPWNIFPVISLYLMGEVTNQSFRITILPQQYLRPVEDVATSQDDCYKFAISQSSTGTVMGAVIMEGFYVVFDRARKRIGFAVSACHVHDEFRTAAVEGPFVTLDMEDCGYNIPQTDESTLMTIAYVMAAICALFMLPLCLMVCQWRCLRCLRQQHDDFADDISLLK

Acetylcholinesterase [5] = biological target: T2, Acetylcholinesterase; test: Inhibition of AChE (unknown origin) at 100 uM relative to control
[6] = biological target: T4, Amyloid-beta precursor protein (Homo sapiens, UniProt P05067); test: Inhibition of self-induced amyloid beta (unknown origin) aggregation at 100 uM relative to control
T4 sequence (P05067 whole entry): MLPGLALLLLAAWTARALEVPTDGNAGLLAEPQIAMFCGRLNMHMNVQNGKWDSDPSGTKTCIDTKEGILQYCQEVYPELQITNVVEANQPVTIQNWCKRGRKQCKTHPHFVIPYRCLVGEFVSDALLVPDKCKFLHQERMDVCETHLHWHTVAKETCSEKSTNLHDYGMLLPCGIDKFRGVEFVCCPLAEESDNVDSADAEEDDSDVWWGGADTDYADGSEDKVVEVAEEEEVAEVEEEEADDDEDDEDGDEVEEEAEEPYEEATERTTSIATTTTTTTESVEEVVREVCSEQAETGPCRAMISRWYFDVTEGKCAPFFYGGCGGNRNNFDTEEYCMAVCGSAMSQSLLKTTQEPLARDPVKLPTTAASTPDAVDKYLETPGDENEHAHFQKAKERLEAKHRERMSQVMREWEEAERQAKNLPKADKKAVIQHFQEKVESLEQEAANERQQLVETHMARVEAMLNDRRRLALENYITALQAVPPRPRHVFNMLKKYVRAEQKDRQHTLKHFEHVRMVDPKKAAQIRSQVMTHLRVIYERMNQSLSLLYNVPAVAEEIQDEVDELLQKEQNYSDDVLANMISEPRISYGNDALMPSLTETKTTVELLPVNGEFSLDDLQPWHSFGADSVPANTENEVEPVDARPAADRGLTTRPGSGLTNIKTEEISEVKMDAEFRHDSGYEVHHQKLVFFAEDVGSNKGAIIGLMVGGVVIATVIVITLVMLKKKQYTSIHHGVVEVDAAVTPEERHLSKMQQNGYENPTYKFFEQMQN

[7] = biological target: T4, Amyloid-beta precursor protein; test: Inhibition of self-induced amyloid beta (1 to 42) (unknown origin) aggregation at 10 uM relative to control
Mus musculus [8] = test: Antialzheimer activity in Tg2576 mouse model assessed as decrease in soluble amyloid beta level in brain homogenate at 20 mg/kg, ip administered daily for 30 days relative to control; assay type: functional; set-up: scale not given: the % may be the effect or the level left; conditions: time 30 day
[9] = Antioxidant activity of compound assessed as trolox equivalent preincubated for 15 mins followed by AAPH addition and measured for 90 mins by ORAC-FL assay; assay type: functional; conditions: time 105.0 min
[10] = biological target: T4, Amyloid-beta precursor protein; test: Inhibition of amyloid beta (1 to 42) (unknown origin) fibril formation incubated for 1 hr by thioflavin-T fluorescence assay
[11] = biological target: T5, Amine oxidase [flavin-containing] B (Homo sapiens, UniProt P27338); test: Inhibition of human MAO-B
T5 sequence (P27338 whole entry): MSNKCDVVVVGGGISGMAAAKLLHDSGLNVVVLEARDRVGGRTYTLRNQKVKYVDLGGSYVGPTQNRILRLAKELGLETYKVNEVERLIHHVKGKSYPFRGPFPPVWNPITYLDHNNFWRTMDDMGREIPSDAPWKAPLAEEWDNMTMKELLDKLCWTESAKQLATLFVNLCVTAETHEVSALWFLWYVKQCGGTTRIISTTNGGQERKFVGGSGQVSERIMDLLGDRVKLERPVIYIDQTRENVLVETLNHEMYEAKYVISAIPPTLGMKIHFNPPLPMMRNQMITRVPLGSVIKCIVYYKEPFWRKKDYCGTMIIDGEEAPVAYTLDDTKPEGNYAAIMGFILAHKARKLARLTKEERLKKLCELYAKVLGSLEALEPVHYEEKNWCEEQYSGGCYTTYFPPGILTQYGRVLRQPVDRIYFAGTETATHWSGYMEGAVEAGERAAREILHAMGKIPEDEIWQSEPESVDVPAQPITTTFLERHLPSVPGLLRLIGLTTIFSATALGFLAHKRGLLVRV

[12] = biological target: T4, Amyloid-beta precursor protein; test: Inhibition of self-induced amyloid beta (unknown origin) aggregation
[13] = biological target: T4, Amyloid-beta precursor protein; test: Inhibition of self-induced amyloid beta (unknown origin) aggregation relative to control; conditions: concentration not given here
Acetylcholinesterase [14] = biological target: T2, Acetylcholinesterase; test: Inhibition of human recombinant AChE preincubated for 20 mins followed by substrate addition by Ellman's method
Cholinesterase [15] = biological target: T1, Cholinesterase; test: Inhibition of human serum BuChE preincubated for 20 mins followed by substrate addition by Ellman's method; assay type: cell-free
Cholinesterase [16] = biological target: T1, Cholinesterase; test: Inhibition of BuChE (unknown origin) relative to control; conditions: concentration not given here
Acetylcholinesterase [17] = biological target: T2, Acetylcholinesterase; test: Inhibition of AChE (unknown origin) relative to control; conditions: concentration not given here
[18] = biological target: T4, Amyloid-beta precursor protein; test: Inhibition of self-induced amyloid beta (unknown origin) aggregation at 3 uM relative to control
HT-22 = test: Neuroprotective activity against glutamate-induced cell death in mouse HT-22 cells at 10 uM relative to control; assay type: functional
Beta-secretase 1 [19] = biological target: T3, Beta-secretase 1; test: Inhibition of BACE-1 (unknown origin) relative to control; conditions: concentration not given here
SH-SY5Y [20] = test: Neuroprotective activity against amyloid beta treated human SH-SY5Y cells at 1 nM relative to control; assay type: functional
HepG2 = test: Cytotoxicity against human HepG2 cells assessed as reduction in cell viability at 10 uM relative to control; assay type: functional
Beta-secretase 1 [21] = biological target: T3, Beta-secretase 1; test: Inhibition of human BACE-1
[22] = biological target: T5, Amine oxidase [flavin-containing] B; test: Inhibition of MAO-B (unknown origin)
Acetylcholinesterase [23] = biological target: T2, Acetylcholinesterase; test: Inhibition of AChE (unknown origin) assessed as inhibition constant
[24] = biological target: T4, Amyloid-beta precursor protein; test: Inhibition of self-induced amyloid beta (unknown origin) aggregation at 20 uM relative to control
Beta-secretase 1 [25] = biological target: T3, Beta-secretase 1; test: Inhibition of human BACE-1 at 500 uM relative to control
[26] = biological target: T4, Amyloid-beta precursor protein; test: Inhibition of amyloid beta (unknown origin) aggregation
SH-SY5Y [27] = test: Neuroprotective activity against human SH-SY5Y cells assessed as increase in cell viability at 25 uM relative to control; assay type: functional
Mus musculus [28] = test: Anti-alzheimer activity in APP/PS1 mouse model assessed as reduction in cerebral levels of insoluble amyloid beta (1 to 40) at 40 mg/kg, po administered via oral gavage once a day for 12 weeks relative to control; assay type: functional; set-up: scale not given: the % may be the effect or the level left

T1 sequence (P06276 whole entry): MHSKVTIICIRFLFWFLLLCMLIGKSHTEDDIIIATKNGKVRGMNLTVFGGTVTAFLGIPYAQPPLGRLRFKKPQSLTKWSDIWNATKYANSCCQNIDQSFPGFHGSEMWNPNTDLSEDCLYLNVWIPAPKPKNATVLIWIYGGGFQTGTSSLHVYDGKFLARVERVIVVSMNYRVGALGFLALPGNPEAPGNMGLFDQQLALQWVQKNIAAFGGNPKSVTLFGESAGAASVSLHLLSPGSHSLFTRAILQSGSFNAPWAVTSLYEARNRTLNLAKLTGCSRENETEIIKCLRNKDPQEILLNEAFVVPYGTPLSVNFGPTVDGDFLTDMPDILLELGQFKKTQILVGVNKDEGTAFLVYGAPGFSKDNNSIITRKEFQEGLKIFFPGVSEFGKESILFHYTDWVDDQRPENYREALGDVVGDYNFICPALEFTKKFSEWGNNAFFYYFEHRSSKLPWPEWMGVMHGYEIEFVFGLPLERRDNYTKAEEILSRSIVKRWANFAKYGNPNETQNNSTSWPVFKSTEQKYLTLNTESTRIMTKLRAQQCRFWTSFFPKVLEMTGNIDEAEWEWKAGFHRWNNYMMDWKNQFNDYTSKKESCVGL
Glycogen synthase kinase-3 beta (Homo sapiens), sequence (P49841 whole entry, looked up): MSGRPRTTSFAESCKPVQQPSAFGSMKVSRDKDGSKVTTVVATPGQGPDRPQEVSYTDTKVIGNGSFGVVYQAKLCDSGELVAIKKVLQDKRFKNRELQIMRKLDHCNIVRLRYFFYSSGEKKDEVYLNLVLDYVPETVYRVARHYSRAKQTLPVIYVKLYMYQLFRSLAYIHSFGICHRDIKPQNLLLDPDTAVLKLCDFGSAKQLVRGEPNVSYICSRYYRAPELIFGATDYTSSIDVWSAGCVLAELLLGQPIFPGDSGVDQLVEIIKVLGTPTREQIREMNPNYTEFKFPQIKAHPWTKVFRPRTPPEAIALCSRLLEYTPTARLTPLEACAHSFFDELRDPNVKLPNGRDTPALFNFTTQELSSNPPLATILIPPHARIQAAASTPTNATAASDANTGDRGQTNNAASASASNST

## O=c1cc(-c2ccc(O)c(O)c2)oc2cc(O)c([C@@H]3O[C@H](CO)[C@@H](O)[C@H](O)[C@H]3O)c(O)c12
[1]
  inhibition: 48.4%

## COc1ccc(-c2cc(=O)c3ccc(OCCN4CCCC4)cc3o2)cc1
Cholinesterase [2]
  IC50: 0.0695 µM
Acetylcholinesterase [3]
  IC50: 0.105 µM

## COc1cc2c(cc1CC=C(C)C)C(=O)C[C@@H](c1ccc(O)cc1)O2
Beta-secretase 1 [4]
  inhibition: 21%
Acetylcholinesterase [5]
  inhibition: 81%
[6]
  inhibition: 57%

## O=c1c(O)c(-c2cc(O)c(O)c(O)c2)oc2cc(O)cc(O)c12
[7]
  inhibition: 65.2%

## O=c1cc(-c2ccc(O)c(O)c2)oc2cc(O)cc(O)c12 [LUTEOLIN]
Mus musculus [8]
  Activity: 49%

## CCN(CC)C(=O)Oc1ccc(-c2cc(=O)c3c(O)c(O)c(O)cc3o2)cc1
Cholinesterase [2]
  IC50: 22.1 µM
Acetylcholinesterase [3]
  IC50: 1.2 µM
[9]
  Activity: 10.3

## CC(C)=CCc1cc2c(cc1O)O[C@@H](c1ccc(O)cc1)CC2=O
Beta-secretase 1 [4]
  inhibition: 17%
Acetylcholinesterase [5]
  inhibition: 34%
[6]
  inhibition: 19%

## CN(C)Cc1c(O)c(O)c(O)c2c(=O)cc(-c3ccccc3)oc12
Acetylcholinesterase [3]
  IC50: 82 µM

## COc1cc2oc3cccc(O)c3c(=O)c2c(O)c1CN(C)C
Acetylcholinesterase [3]
  IC50: 100 µM

## O=c1c(O)c(-c2ccc(O)cc2O)oc2cc(O)cc(O)c12 [MORIN]
[10]
  IC50: 7.4 µM

## COc1ccc(/C=C2\COc3cc(OCCCCCN4CCCCC4)ccc3C2=O)cc1
[11]
  IC50: 0.65 µM

## Cc1ccc(NCC[C@@H]2CCCN3CCCC[C@H]23)c2c(=O)c3ccccc3sc12
Cholinesterase [2]
  IC50: 0.46 µM
Acetylcholinesterase [3]
  IC50: 5.2 µM
[12]
  IC50: 0.84 µM

## CNC(=O)Oc1cccc(CN(C)CCCCCCCOc2cccc(-c3cc(=O)c4ccccc4o3)c2)c1
[13]
  inhibition: 17.2%
Acetylcholinesterase [14]
  IC50: 0.00052 µM
Cholinesterase [15]
  IC50: 0.0637 µM

## COc1ccc(-c2cc(=O)c3ccc(OCCN4CCOCC4)cc3o2)cc1
Cholinesterase [2]
  IC50: 0.0543 µM
Acetylcholinesterase [3]
  IC50: 0.011 µM

## COc1c(O)cc2oc3cc(O)c(CC=C(C)C)c(O)c3c(=O)c2c1CCC(C)(C)O [GARCINONE D]
Cholinesterase [16]
  inhibition: 15%
Acetylcholinesterase [17]
  inhibition: 12.9%
[18]
  inhibition: 34.9%
HT-22
  Activity: 45.4%
Beta-secretase 1 [19]
  inhibition: 62.7%

## CCN(CC)CCCCOc1cc(O)c2c(=O)c(-c3ccc(O)cc3)coc2c1
Cholinesterase [2]
  IC50: > 100 µM
SH-SY5Y [20]
  Activity: 75.7%
Acetylcholinesterase [3]
  IC50: 0.1 µM

## COc1cc(-c2cc(=O)c3c(O)c([C@@H]4O[C@H](CO)[C@@H](O)[C@H](O)[C@H]4O)c(O)cc3o2)ccc1O
[1]
  inhibition: 41.5%

## COc1ccc(-c2cc(=O)c3ccc(OCCN4CCN(CCO)CC4)cc3o2)cc1
Cholinesterase [2]
  IC50: 0.0216 µM
Acetylcholinesterase [3]
  IC50: 0.00756 µM

## COc1ccc(/C=C2\COc3cc(OCCN4CCCCC4)ccc3C2=O)cc1
[11]
  IC50: 25 µM

## CN(C)CCNC(=O)COc1cc(O)c2c(=O)c(-c3ccc(O)cc3)coc2c1.Cl
Cholinesterase [16]
  inhibition: 26%
Acetylcholinesterase [3]
  IC50: 2.75 µM
HepG2
  Activity: 1.53%

## CCC(=O)CNC(=O)Nc1nc2ccc(-c3oc4c(OC)c(O)c(O)c(OC)c4c(=O)c3O)cc2s1
Cholinesterase [2]
  IC50: 0.00032 µM
Beta-secretase 1 [21]
  IC50: 2.1 µM
Acetylcholinesterase [3]
  IC50: 0.1 µM

## COc1cc(O)c2c(=O)c3cccc(O)c3oc2c1
[22]
  IC50: 33 µM
Acetylcholinesterase [23]
  Ki: 53 µM

## COc1ccc(/C=C2\COc3cc(OCCCN4CCCCC4)ccc3C2=O)cc1
[11]
  IC50: 3.44 µM
Cholinesterase [2]
  IC50: 9.21 µM
Acetylcholinesterase [3]
  IC50: 3.94 µM

## O=c1c(O)c(-c2ccc(O)c(O)c2)oc2cc(O)cc(O)c12 [QUERCETIN]
[10]
  IC50: 2.4 µM

## COc1ccc(-c2cc(=O)c3ccc(OCCN4CCC(C)CC4)cc3o2)cc1
Cholinesterase [2]
  IC50: 0.0247 µM
Acetylcholinesterase [3]
  IC50: 0.00633 µM

## C[C@@H]1O[C@@H](OC[C@H]2O[C@@H](Oc3cc(O)c4c(c3)O[C@H](c3ccc(O)cc3)CC4=O)[C@H](O)[C@@H](O)[C@@H]2O)[C@H](O)[C@H](O)[C@H]1O
[24]
  inhibition: 53%
Beta-secretase 1 [25]
  inhibition: 79.3%

## CCN(CC)CCOc1ccc2c(=O)cc(-c3ccc(OC)cc3)oc2c1
Cholinesterase [2]
  IC50: 0.0491 µM
Acetylcholinesterase [3]
  IC50: 0.0271 µM

## O=C(O[C@@H]1Cc2c(O)cc(O)cc2O[C@@H]1c1cc(O)c(O)c(O)c1)c1cc(O)c(O)c(O)c1 [EPIGALOCATECHIN GALLATE]
[26]
  IC50: 0.18 µM

## O=C(O[C@H]1Cc2c(O)cc(O)cc2O[C@H]1c1ccc(O)c(O)c1)c1cc(O)c(O)c(O)c1
Beta-secretase 1 [21]
  IC50: 2.4 µM
[26]
  IC50: 3 µM

## O=c1c(O)c(-c2ccc(O)c(O)c2)oc2cc(O)ccc12 [FISETIN]
[10]
  IC50: 12.5 µM

## COc1cc(-c2oc3cc(O)cc(O)c3c(=O)c2O)ccc1O [ISORHAMNETIN]
SH-SY5Y [27]
  Activity: 64%

## COc1cc(O)c2c(=O)c(O)c(-c3ccc(O)c(O)c3)oc2c1 [RHAMNETIN]
[10]
  IC50: 2.3 µM

## O=c1cc(-c2ccc(O)cc2)oc2cc(O)cc(O)c12 [APIGENIN]
Mus musculus [28]
  Activity: 20%

## Cc1ccc(NCC[C@@H]2CCCN3CCCC[C@H]23)c2c(=O)c3ccccc3oc12
Cholinesterase [2]
  IC50: 0.37 µM
Acetylcholinesterase [3]
  IC50: 0.14 µM
[12]
  IC50: 13 µM

## Oc1cc(O)c2c(c1)O[C@H](c1ccc(O)c(O)c1)[C@H](O)C2 [(-)-EPICATECHIN]
[26]
  IC50: 5.3 µM

— ChEMBL document CHEMBL5252548, “A review on flavonoid-based scaffolds as multi-target-directed ligands (MTDLs) for Alzheimer's disease” (Eur J Med Chem, 2018)
